Measured values from patent EP1984353B1, “AURORA KINASE MODULATORS AND METHOD OF USE” (Amgen, Inc, priority 2006, dated 2007).
Like-named read-outs stand apart in the source and are kept apart here. Blank lines part the entries; values can stand above or below the molecule they belong to.

Assays:
[1] = tested on: phosphorylation of Histone H3; assay: HeLa cell 1-hour phospho-histone assay; format: cell-based; conditions: HeLa cells
Description: HeLa cell 1-hour phospho-histone assay
The purpose of this assay is to test the inhibitory effect of Aurora compounds with respect to phosphorylation of Histone H3 in the cellular context. HeLa cells (9x10^4/well) are plated in black 96-well flat-bottom tissue culture plates and incubated for 40 hours prior to compound addition. Compounds are serially diluted in DMSO, followed by dilution into MEM containing […] HEPES; 10ul/well of diluted compounds are added to cells (0.5% DMSO final). Cells are incubated for 1 hour at 37 °C in 5% CO2. Cells are then fixed with 3.7% formaldehyde for 10 minutes, washed with wash buffer (1% goat serum and 0.1% Tween 20 in PBS), then permeabilized with 0.5% Triton X in PBS for 15 minutes. After washing with wash buffer, cells are incubated with primary antibody (Upstate #06-507 anti-phospho-histone (Ser 10) antibody (pHH3) for 1 hour at 10ug/ml. After 2 washes with wash buffer, cells are incubated with secondary antibody (Molecular Probes #A11034 goat anti-rabbit Alexa-488 for 1 hour at 1ug/ml + Hoechst 33342 nuclear dye at 1ug/ml (Molecular Probes). Cells are washed 2 times with wash buffer, and buffer replaced with PBS. Plates are scanned on the Cellomics Array Scan (6 fields, ~2000 cells/well) and % of cells that are pHH3 positive were calculated using the Cellomics algorithm.

AuroraB = target: T1, AuroraB (Homo sapiens, UniProt Q96GD4); assay: AuroraB Homogeneous Time Resolved Fluorescent (HTRF) kinase assay; format: biochemical
T1 construct: 20 µL of AuroraB FL His; His
In short: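 Full-length His-tagged AuroraB (400 pM) phosphorylates 0.1 µM biotinylated Histone H3 with 23 µM ATP (Km(app)) in HEPES pH 7.5 with Mg/Mn, about 90 min. EDTA-quenched; Eu-anti-phosphoHistoneH3 and SA-APC HTRF, 655/615 nm ratio as phosphorylation.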

AuroraA-TPX2 = target: T2, AuroraA-TPX2 (Homo sapiens, UniProt O14965); assay: AuroraA-TPX2 Homogeneous Time Resolved Fluorescent (HTRF) kinase assay; format: biochemical; conditions: average, read-out: AurA/TP X2_ IC50_IP (Avg)
T2 construct: 20 µL of AuroraA-TPX2 KD GST; GST
T2 sequence (O14965 133-383 limits assumed): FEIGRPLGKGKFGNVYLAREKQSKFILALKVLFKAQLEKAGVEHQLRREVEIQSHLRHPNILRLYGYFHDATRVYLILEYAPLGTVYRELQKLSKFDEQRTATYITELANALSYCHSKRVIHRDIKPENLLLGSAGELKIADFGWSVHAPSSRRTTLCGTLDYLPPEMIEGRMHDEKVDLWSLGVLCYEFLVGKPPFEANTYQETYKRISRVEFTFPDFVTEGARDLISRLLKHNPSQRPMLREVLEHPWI
T2 sequence (Q9ULW0 1-43 partner limits assumed): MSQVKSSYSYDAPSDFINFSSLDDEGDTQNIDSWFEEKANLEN
In short: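 Aurora-A/TPX2 phosphorylates biotinylated PLK peptide (about 1 µM) with ATP for about 120 min in 60 mM HEPES pH 7.5, 10 mM MgCl2, 2 mM DTT. EDTA quench, overnight equilibration with Eu-anti-phosphoPLK antibody and SA-APC; HTRF read at 615/655 nm after 320 nm excitation.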

[2] = Homo sapiens, HeLa, 1 h, 1 hour incubation, % of cells pHH3 positive, read-out: inhibitory activity (EC50) in the phospho-histone H3 assay
[3] = average, given as class symbols, read-out: AurB_ _IC50_IP (Avg)
[4] = Homo sapiens, HeLa, 1 h, 1 hour, average, given as class symbols, read-out: pHH3 EC50_IP (Avg)
[5] = average, given as numbers, unit inferred, read-out: AurB_ _IC50_IP (Avg)
[6] = given as numbers, unit inferred
[7] = Homo sapiens, HeLa, 1 h, 1 hour, average, given as numbers, unit inferred, read-out: pHH3 EC50_IP (Avg)

T1 sequence (Q96GD4 whole entry): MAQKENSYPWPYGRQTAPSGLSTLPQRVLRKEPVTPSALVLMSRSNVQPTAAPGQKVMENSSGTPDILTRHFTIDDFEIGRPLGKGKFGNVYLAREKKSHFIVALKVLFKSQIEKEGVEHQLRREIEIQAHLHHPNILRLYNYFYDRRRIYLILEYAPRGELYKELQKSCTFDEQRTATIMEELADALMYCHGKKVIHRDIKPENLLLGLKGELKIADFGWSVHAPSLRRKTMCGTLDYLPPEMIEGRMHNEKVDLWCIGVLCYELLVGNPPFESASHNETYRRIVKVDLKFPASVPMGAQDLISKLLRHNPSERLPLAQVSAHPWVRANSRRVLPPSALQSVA

EC50 ([1]; 1 hour incubation, % of cells pHH3 positive, read-out: inhibitory activity (EC50) in the phospho-histone H3 assay): < 1000 nM
SMILES: CNc1nccc(-c2cccnc2Oc2ccc(Nc3nnc(-c4ccccc4)c4c3C3CCC4CC3)cc2)n1 [Example 107, N-(4-((3-(2-(methylamino)-4-pyrimidinyl)-2-pyridinyl)oxy)phenyl)-6-phenyl-4,5-diazatricyclo [6.2.2.0-2,7-]dodeca-2,4,6-trien-3-amine]

EC50 [1, 2]: < 1000 nM
SMILES: Cc1cc(-c2ccccc2)nnc1Nc1ccc(Oc2ncccc2-c2ccnc(N)n2)cc1 [Example 119, N-(4-((3-(2-amino-4-pyrimidinyl)-2-pyridinyl)oxy)phenyl)-4-methyl-6-phenyl-3-pyridazinamine]

EC50 [1, 2]: < 1000 nM
SMILES: CNc1cc(-c2cccnc2Oc2ccc(Nc3nnc(-c4ccccc4)c4c3CCC4)cn2)ccn1 [Example 120, N-methyl-2-((5-((4-phenyl-6,7-dihydro-5H-cyclopenta[d]pyridazin-1-yl)amino)-2-pyridinyl)oxy)-3,4'-bipyridin-2'-amine]

IC50 (AuroraB; [5]): 4.2 nM | IC50 (AuroraA-TPX2; [6]): 19.8 nM | EC50 [1, 7]: 335 nM
SMILES: Nc1nccc(-c2cccnc2Oc2ccc(Nc3nnc(-c4ccc(CCO)cc4)c4ccccc34)cc2)n1 [compound 247, 2-(4-(4-((4-((3-(2-amino-4-pyrimidinyl)-2-pyridinyl)oxy)phenyl)amino)-1-phthalazinyl)phenyl)ethanol]

IC50 (AuroraB; [5]): 11 nM | IC50 (AuroraA-TPX2; [6]): 149 nM | EC50 [1, 7]: 465 nM
SMILES: CNc1nccc(-c2cccnc2Oc2ccc(Nc3nnc(-c4ccccc4)c4ccccc34)nc2)n1 [compound 248, N-(5-((3-(2-(methylamino)-4-pyrimidinyl)-2-pyridinyl)oxy)-2-pyridinyl)-4-phenyl-1-phthalazinamine]

IC50 (AuroraB; [3]): ≤ 100 nM | EC50 [1, 4]: ≤ 100 nM
SMILES: Cc1csc(-c2nnc(Nc3ccc(Oc4ncccc4-c4ccnc(N)n4)cc3)c3ccccc23)c1 [compound 331, N-(4-((3-(2-amino-4-pyrimidinyl)-2-pyridinyl)oxy)phenyl)-4-(4-methyl-2-thienyl)-1-phthalazinamine]

EC50 [1, 4]: ≤ 100 nM
SMILES: Nc1nccc(-c2cccnc2Oc2ccc(Nc3nnc(-c4ccccc4)c4ccccc34)cn2)n1 [compound 415, N-(6-((3-(2-amino-4-pyrimidinyl)-2-pyridinyl)oxy)-3-pyridinyl)-4-phenyl-1-phthalazinamine]

EC50 [1, 4]: 100 to 500 nM
SMILES: Cc1cc(-c2ccccc2)nnc1Nc1ccc(Oc2ncccc2-c2ccnc(N)c2)cc1 [compound 418, 2-((4-((4-methyl-6-phenyl-3-pyridazinyl)amino)phenyl)oxy)-3,4'-bipyridin-2'-amine]

EC50 [1, 4]: 500 to 2500 nM
SMILES: O=C(O)CCCNc1nccc(-c2cccnc2Oc2ccc(Nc3nnc(-c4ccccc4)c4ccccc34)cc2)n1 [compound 427, 4-((4-(2-((4-((4-phenyl-1-phthalazinyl)amino)phenyl)oxy)-3-pyridinyl)-2-pyrimidinyl)amino)butanoic acid]

EC50 [1, 4]: 100 to 500 nM
SMILES: Cc1cc(-c2ccccc2)nnc1Nc1ccc(Oc2ncccc2-c2ccnc(NCCCO)n2)cc1 [compound 429, 3-((4-(2-((4-((4-methyl-6-phenyl-3-pyridazinyl)amino)phenyl)oxy)-3-pyridinyl)-2-pyrimidinyl)amino)-1-propanol]

EC50 [1, 7]: 1000 nM
SMILES: Cc1csc(-c2cc(C)c(Nc3ccc(Oc4ncccc4-c4ccnc(N)c4)cc3)nn2)n1 [compound 434, 2-((4-((4-methyl-6-(4-methyl-1,3-thiazol-2-yl)-3-pyridazinyl)amino)phenyl)oxy)-3,4'-bipyridin-2'-amine]

Continued, molecule first:

SMILES: CNc1nccc(-c2cccnc2Oc2ccc(Nc3nnc(-c4ccccc4)c4c3CCC4)cn2)n1 [Example 108, N-(6-((3-(2-(methylamino)-4-pyrimidinyl)-2-pyridinyl)oxy)-3-pyridinyl)-4-phenyl-6,7-dihydro-5H-cyclopenta[d]pyridazin-1-amine]
EC50 [1, 2]: < 1000 nM

SMILES: Nc1[nH]ncc1-c1cccnc1Oc1ccc(Nc2nnc(-c3ccccc3)c3ccccc23)cc1 [Example 238, N-(4-((3-(5-amino-1H-pyrazol-4-yl)-2-pyridinyl)oxy)phenyl)-4-phenyl-1-phthalazinamine]
IC50 (AuroraB; read-out: inhibitory activity (IC50) in the Aurora kinase B HTRF assay): < 500 nM | EC50 [1, 2]: < 1000 nM

SMILES: Nc1nccc(-c2cccnc2Oc2ccc(Nc3nnc(-c4ccccc4)cc3-c3ccccc3)cc2)n1 [compound 246, N-(4-((3-(2-amino-4-pyrimidinyl)-2-pyridinyl)oxy)phenyl)-4,6-diphenyl-3-pyridazinamine]
IC50 (AuroraB; [3]): ≤ 100 nM | IC50 (AuroraA-TPX2; given as class symbols): 500 to 2500 nM | EC50 [1, 4]: 500 to 2500 nM

SMILES: Nc1nccc(-c2cccnc2Oc2ccc(Nc3nnc(-c4ccc(CO)cc4)c4ccccc34)cc2)n1 [compound 249, (4-(4-((4-((3-(2-amino-4-pyrimidinyl)-2-pyridinyl)oxy)phenyl)amino)-1-phthalazinyl)phenyl)methanol]
IC50 (AuroraB; [3]): ≤ 100 nM | IC50 (AuroraA-TPX2; given as class symbols): ≤ 100 nM | EC50 [1, 4]: 100 to 500 nM

SMILES: Nc1nccc(-c2cccnc2Oc2ccc(Nc3nnc(-c4ccccc4)c4ccoc34)cc2)n1 [compound 250, N-(4-((3-(2-amino-4-pyrimidinyl)-2-pyridinyl)oxy)phenyl)-4-phenylfuro[2,3-d]pyridazin-7-amine]
IC50 (AuroraB; [5]): 19.9 nM | IC50 (AuroraA-TPX2; [6]): 30.3 nM | EC50 [1, 7]: 175 nM

SMILES: Cc1csc(-c2nnc(Nc3ccc(Oc4ncccc4-c4ccnc(N)n4)cc3)c(C)c2C)c1 [compound 259, N-(4-((3-(2-amino-4-pyrimidinyl)-2-pyridinyl)oxy)phenyl)-4,5-dimethyl-6-(4-methyl-2-thienyl)-3-pyridazinamine]
IC50 (AuroraB; [5]): 2.8 nM | IC50 (AuroraA-TPX2; [6]): 5.9 nM | EC50 [1, 7]: 41.7 nM

SMILES: Cc1cc(Br)cnc1Nc1ccc(Oc2ncccc2-c2ccncc2)cc1 [compound 264, N-(4-(3,4'-bipyridin-2-yloxy)phenyl)-5-bromo-3-methyl-2-pyridinamine]
IC50 (AuroraB; [3]): 500 to 2500 nM | EC50 [1, 4]: 500 to 2500 nM

SMILES: Cc1csc(-c2nnc(Nc3ccc(Oc4ncccc4-c4ccnc(N)c4)cc3)c3ccccc23)c1 [compound 416, 2-((4-((4-(4-methyl-2-thienyl)-1-phthalazinyl)amino)phenyl)oxy)-3,4'-bipyridin-2'-amine]
EC50 [1, 7]: 134 nM

SMILES: Cc1csc(-c2cc(C)c(Nc3ccc(Oc4ncccc4-c4ccnc(N)c4)cc3)nn2)c1 [compound 419, 2-((4-((4-methyl-6-(4-methyl-2-thienyl)-3-pyridazinyl)amino)phenyl)oxy)-3,4'-bipyridin-2'-amine]
EC50 [1, 4]: 100 to 500 nM

SMILES: CCc1cc(-c2ccccc2)nnc1Nc1ccc(Oc2ncccc2-c2ccnc(N)c2)cc1 [compound 420, 2-((4-((4-ethyl-6-phenyl-3-pyridazinyl)amino)phenyl)oxy)-3,4'-bipyridin-2'-amine]
EC50 [1, 7]: 314 nM

SMILES: Cc1csc(-c2cc(C)c(Nc3ccc(Oc4ncccc4-c4ccncc4)cc3)nn2)c1 [compound 428, N-(4-(3,4'-bipyridin-2-yloxy)phenyl)-4-methyl-6-(4-methyl-2-thienyl)-3-pyridazinamine]
EC50 [1, 4]: 500 to 2500 nM

SMILES: Cc1cc(-c2ccccc2)nnc1Nc1ccc(Oc2ncccc2-c2ccnc(NCCCC(=O)O)n2)cc1 [compound 430, 4-((4-(2-((4-((4-methyl-6-phenyl-3-pyridazinyl)amino)phenyl)oxy)-3-pyridinyl)-2-pyrimidinyl)amino)butanoic acid]
EC50 [1, 4]: 500 to 2500 nM

SMILES: Nc1cc(-c2cccnc2Oc2ccc(Nc3nnc(-c4ccccc4)c4ccccc34)cn2)ccn1 [compound 431, 2-((5-((4-phenyl-l-phthalazinyl)amino)-2-pyridinyl)oxy)-3,4'-bipyridin-2'-amine]
EC50 [1, 4]: ≤ 100 nM

SMILES: O=c1cc(-c2cccnc2Oc2ccc(Nc3nnc(-c4ccccc4)c4ccccc34)cc2)cc[nH]1 [compound 432, 2-((4-((4-phenyl-1-phthalazinyl)amino)phenyl)oxy)-3,4'-bipyridin-2'(1'H)-one]
EC50 [1, 4]: 500 to 2500 nM
